The target of this assay is T1, pY705-STAT3 in PBMC (Homo sapiens, UniProt P40763).
T1 construct: Cryopreserved Peripheral Blood Mononuclear Cells (PBMC) are from AllCells; host or cells: cryopreserved PBMC
T1 sequence (P40763 whole entry): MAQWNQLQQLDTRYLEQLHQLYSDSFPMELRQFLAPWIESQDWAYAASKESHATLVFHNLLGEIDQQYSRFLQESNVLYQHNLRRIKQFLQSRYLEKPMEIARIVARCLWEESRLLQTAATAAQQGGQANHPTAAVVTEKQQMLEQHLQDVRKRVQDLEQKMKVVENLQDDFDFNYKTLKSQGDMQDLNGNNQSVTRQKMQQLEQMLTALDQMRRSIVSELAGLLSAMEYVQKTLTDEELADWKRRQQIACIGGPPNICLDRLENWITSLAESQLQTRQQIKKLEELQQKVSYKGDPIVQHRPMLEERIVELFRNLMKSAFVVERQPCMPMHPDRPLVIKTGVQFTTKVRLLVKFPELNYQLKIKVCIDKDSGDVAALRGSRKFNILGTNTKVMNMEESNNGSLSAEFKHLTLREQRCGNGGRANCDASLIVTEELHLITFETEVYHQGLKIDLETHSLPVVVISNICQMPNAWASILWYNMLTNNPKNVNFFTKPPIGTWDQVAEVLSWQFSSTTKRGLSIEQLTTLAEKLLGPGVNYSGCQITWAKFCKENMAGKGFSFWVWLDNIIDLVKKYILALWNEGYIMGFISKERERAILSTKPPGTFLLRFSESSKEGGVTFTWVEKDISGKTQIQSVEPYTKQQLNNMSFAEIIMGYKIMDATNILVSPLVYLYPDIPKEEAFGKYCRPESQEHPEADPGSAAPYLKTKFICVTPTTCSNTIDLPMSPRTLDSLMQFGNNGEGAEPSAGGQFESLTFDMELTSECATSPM
Put plainly: MSD-pSTAT-PBMC Assay (pSTAT3, IL-6 stimulated). It is filed as cell-based. The note with it: PBMC, compound 3 hrs, then 10 ng/mL IL-6 for 10 min; Table 115; read-out: STAT3. An excerpt:
Cryopreserved Peripheral Blood Mononuclear Cells (PBMC) are from AllCells. Recombinant Human IL-4 and IL-6 are from Peprotech. Mouse monoclonal anti-STAT3 antibody, rabbit monoclonal anti-pY705-STAT3 antibody, rabbit monoclonal Anti-pY641-STAT6 antibody, and lysis buffer are from Cell Signaling Technology (CST). Mouse monoclonal anti-STAT6 antibody is from BioLegend. Assay plates, blocker, and anti-rabbit secondary antibody are from Meso Scale Discovery (MSD).
Cyropreserved PBMCs were thawed out and allowed to recover overnight in IMDM+10% heat-inactivated FBS prior to plating 50,000 (STAT3) or 25,000 (STAT6) cells per well in 96-well U-bottom tissue culture plates. Cells were treated with compound for 3 hrs, then stimulated with 10 ng/mL IL-6 (STAT3) or 1 ng/mL IL-4 (STAT6) for 10 min. Cells were then spun down and washed with ice-cold PBS prior to lysing the cell pellet with 1× lysis buffer (CST) with 1× HALT protease and phosphatase inhibitor cocktail (Thermo). Lysates were transferred to and incubated overnight at 4° C. with shaking in QuickPlex 96-well high bind assay plates (MSD) pre-coated overnight with 30 μL per well of 0.6 μg/mL mouse monoclonal anti-STAT3 antibody (STAT3) or 2 μg/mL mouse monoclonal anti-STAT6 antibody (STAT6) in 1× PBS, and pre-blocked for 1 hour with 3% Blocker-A (MSD). Captured protein in the assay plates were then washed and probed with 25 μL per well of […] rabbit monoclonal anti-pY705-STAT3 antibody (STAT3) or 0.18 μg/ml rabbit monoclonal Anti-pY641-STAT6 antibody (STAT6) in 1% Blocker-A for 1 hour at room temperature with shaking, then washed and probed with 25 ul per well of 1 ug/ml Sulfo-TAG Labeled Goat Anti-Rabbit Antibody (MSD) in 1% Blocker-A for 1 hour at room temperature with shaking. Assay plates were then washed and 150 μL of 1× Read Buffer-T (MSD) was added to each well prior to reading on an SQ120 MSD Plate Reader. Assay signal from each sample was subtracted by the signal from unstimulated control wells and normalized to DMSO control wells. IC50 values were calculated using Graph Pad Prism Dose-Response Nonlinear Regression with variable slope. For both pSTAT3 and pSTAT6 A=≤100 nM; B 100-1000 nM; C=>1000-3000 nM; D=>3 μM; and NT=Not Tested.
With `COc1ccncc1C1CN(C(=O)[C@@H]2CC[C@@H]3CCC[C@H](NC(=O)c4cc5cc([C@H](F)[P@@](=O)(N[C@@H](C)C(=O)OC(C)C)Oc6ccccc6)ccc5s4)C(=O)N32)C1` (single isomer, unassigned) [Compound 1052], the IC50 fell in the range of 100 to 1000 nM.

Take `COc1ccncc1C1CN(C(=O)[C@@H]2CC[C@@H]3CCC[C@H](NC(=O)c4cc5cc([C@@H](F)[P@@](=O)(N[C@@H](C)C(=O)OC(C)C)Oc6ccccc6)ccc5s4)C(=O)N32)C1` (single isomer, unassigned) [Compound 1053]: the IC50 is under 100 nM.

With `COc1ccncc1C1CN(C(=O)[C@@H]2CC[C@@H]3CCC[C@H](NC(=O)c4cc5cc([C@@H](F)[P@](=O)(N[C@@H](C)C(=O)OCc6ccccc6)Oc6ccccc6)ccc5s4)C(=O)N32)C1` (single isomer, unassigned) [Compound 1054], the IC50 was under 100 nM.

For `COc1ccncc1C1CN(C(=O)[C@@H]2CC[C@@H]3CCC[C@H](NC(=O)c4cc5cc([C@@H](F)[P@](=O)(N[C@@H](C)C(=O)OCC(C)(C)C)Oc6ccccc6)ccc5s4)C(=O)N32)C1` (single isomer, unassigned) [Compound 1056], the IC50 was under 100 nM.

As for `COc1ccncc1C1CN(C(=O)[C@@H]2CC[C@@H]3CCC[C@H](NC(=O)c4cc5cc([C@@H](F)[P@](=O)(N[C@@H](C)C(=O)OCC(C)(C)C)Oc6ccccc6)ccc5s4)C(=O)N32)C1` (single isomer, unassigned) [Compound 1057], the IC50 was under 100 nM.

Consider `CCCOC(=O)[C@H](C)N[P@](=O)(Oc1ccccc1)[C@@H](F)c1ccc2sc(C(=O)N[C@H]3C[C@@H](C)C[C@H]4CC[C@@H](C(=O)N5CC(c6cnccc6OC)C5)N4C3=O)cc2c1` (single isomer, unassigned) [Compound 1058], for which the IC50 is under 100 nM.

Turning to `CCCOC(=O)[C@H](C)N[P@](=O)(Oc1ccccc1)[C@@H](F)c1ccc2sc(C(=O)N[C@H]3C[C@@H](C)C[C@H]4CC[C@@H](C(=O)N5CC(c6cnccc6OC)C5)N4C3=O)cc2c1` (single isomer, unassigned) [Compound 1059], the IC50 is under 100 nM.

For `CCCOC(=O)[C@H](C)N[P@](=O)(Oc1ccccc1)[C@H](F)c1ccc2sc(C(=O)N[C@H]3CCC[C@H]4CC[C@@H](C(=O)N5CC(c6cnccc6N(C)C)C5)N4C3=O)cc2c1` (stereo in doubt) [Compound 953], the IC50 is under 100 nM.

With `CC(C)OC(=O)[C@H](C)NP(=O)(Oc1ccccc1)C(F)(F)c1ccc2sc(C(=O)N[C@H]3CCC[C@H]4CC[C@@H](C(=O)N5CC(c6cccnc6)C5)N4C3=O)cc2c1` (stereo partly drawn) [Compound 248, isopropyl ((difluoro(2-(((3S,6S,9aS)-5-oxo-3-(3-(pyridin-3-yl)azetidine-1-carbonyl)octahydro-1H-pyrrolo[1,2-a]azepin-6-yl)carbamoyl)benzo [b]thiophen-5-yl)methyl)(phenoxy)phosphoryl)-L-alaninate], the IC50 is over 3000 nM.

Regarding `CCCOC(=O)[C@H](C)NP(=O)(Cc1ccc2sc(C(=O)N[C@H]3CCC[C@H]4CC[C@@H](C(=O)N5CC(c6cccnc6)C5)N4C3=O)cc2c1)Oc1ccccc1` (stereo partly drawn) [Compound 250, propyl (((2-(((3S,6S,9aS)-5-oxo-3-(3-(pyridin-3-yl)azetidine-1-carbonyl)octahydro-1H-pyrrolo[1,2-a]azepin-6-yl)carbamoyl)benzo [b]thiophen-5-yl)methyl)(phenoxy)phosphoryl)-L-alaninate], the IC50 was under 100 nM.

As to `CCCOC(=O)[C@H](C)NP(=O)(Cc1ccc2sc(C(=O)N[C@H]3CC(C)C[C@H]4CC[C@@H](C(=O)N5CC(c6cnccc6C)C5)N4C3=O)cc2c1)Oc1ccccc1` (stereo partly drawn) [Compound 251, propyl (((2-(((3S,6S,9aR)-8-methyl-3-(3-(4-methylpyridin-3-yl)azetidine-1-carbonyl)-5-oxooctahydro-1H-pyrrolo[1,2-a]azepin-6-yl)carbamoyl)benzo [b]thiophen-5-yl)methyl)(phenoxy)phosphoryl)-L-alaninate], the IC50 was under 100 nM.

With `CCCCOC(=O)[C@H](C)NP(=O)(Oc1ccccc1)C(F)(F)c1ccc2sc(C(=O)N[C@H]3CCC[C@H]4CC[C@@H](C(=O)N5CC(c6cccnc6)C5)N4C3=O)cc2c1` (stereo partly drawn) [Compound 254, butyl ((difluoro(2-(((3S,6S,9aS)-5-oxo-3-(3-(pyridin-3-yl)azetidine-1-carbonyl)octahydro-1H-pyrrolo[1,2-a]azepin-6-yl)carbamoyl)benzo [b]thiophen-5-yl)methyl)(phenoxy)phosphoryl)-L-alaninate], the IC50 fell in the range of 100 to 1000 nM.

Take `C[C@H](NP(=O)(Cc1ccc2sc(C(=O)N[C@H]3CCC[C@H]4CC[C@@H](C(=O)N5CC(c6cccnc6)C5)N4C3=O)cc2c1)Oc1ccccc1)C(=O)OCC(C)(C)C` (stereo partly drawn) [Compound 256, neopentyl (((2-(((3S,6S,9aS)-5-oxo-3-(3-(pyridin-3-yl)azetidine-1-carbonyl)octahydro-1H-pyrrolo[1,2-a]azepin-6-yl)carbamoyl)benzo [b]thiophen-5-yl)methyl)(phenoxy)phosphoryl)-L-alaninate]: the IC50 is under 100 nM.

Take `CCCOC(=O)[C@H](C)NP(=O)(Cc1ccc2sc(C(=O)N[C@H]3CCC[C@H]4CC[C@@H](C(=O)N5CC(c6cnccc6CC)C5)N4C3=O)cc2c1)Oc1ccccc1` (stereo partly drawn) [Compound 257, propyl (((2-(((3S,6S,9aS)-3-(3-(4-ethylpyridin-3-yl)azetidine-1-carbonyl)-5-oxooctahydro-1H-pyrrolo[1,2-a]azepin-6-yl)carbamoyl)benzo [b]thiophen-5-yl)methyl)(phenoxy)phosphoryl)-L-alaninate]: the IC50 was under 100 nM.

As for `CCC(CC)COC(=O)[C@H](C)NP(=O)(Cc1ccc2sc(C(=O)N[C@H]3CCC[C@H]4CC[C@@H](C(=O)N5CC(c6cccnc6)C5)N4C3=O)cc2c1)Oc1ccccc1` (stereo partly drawn) [Compound 258, 2-ethylbutyl (((2-(((3S,6S,9aS)-5-oxo-3-(3-(pyridin-3-yl)azetidine-1-carbonyl)octahydro-1H-pyrrolo[1,2-a]azepin-6-yl)carbamoyl)benzo [b]thiophen-5-yl)methyl)(phenoxy)phosphoryl)-L-alaninate], the IC50 was under 100 nM.

Turning to `CC(C)COC(=O)[C@H](C)NP(=O)(Cc1ccc2sc(C(=O)N[C@H]3CCC[C@H]4CC[C@@H](C(=O)N5CC(c6cccnc6)C5)N4C3=O)cc2c1)Oc1ccccc1` (stereo partly drawn) [Compound 259, isobutyl (((2-(((3S,6S,9aS)-5-oxo-3-(3-(pyridin-3-yl)azetidine-1-carbonyl)octahydro-1H-pyrrolo[1,2-a]azepin-6-yl)carbamoyl)benzo [b]thiophen-5-yl)methyl)(phenoxy)phosphoryl)-L-alaninate], the IC50 is under 100 nM.

As to `CCCOC(=O)[C@H](C)NP(=O)(Cc1ccc2sc(C(=O)N[C@H]3CCC[C@H]4CC[C@@H](C(=O)N5CC(c6cncnc6C)C5)N4C3=O)cc2c1)Oc1ccccc1` (stereo partly drawn) [Compound 260, propyl (((2-(((3S,6S,9aS)-3-(3-(4-methylpyrimidin-5-yl)azetidine-1-carbonyl)-5-oxooctahydro-1H-pyrrolo[1,2-a]azepin-6-yl)carbamoyl)benzo [b]thiophen-5-yl)methyl)(phenoxy)phosphoryl)-L-alaninate], the IC50 fell in the range of 1000 to 3000 nM.

With `CCCOC(=O)[C@H](C)NP(=O)(Oc1ccccc1)C(F)c1ccc2sc(C(=O)N[C@H]3CCC[C@H]4CC[C@@H](C(=O)N5CC(c6cnccc6CC)C5)N4C3=O)cc2c1` (stereo partly drawn) [Compound 261, propyl (((2-(((3S,6S,9aS)-3-(3-(4-ethylpyridin-3-yl)azetidine-1-carbonyl)-5-oxooctahydro-1H-pyrrolo[1,2-a]azepin-6-yl)carbamoyl)benzo [b]thiophen-5-yl)fluoromethyl) (phenoxy)phosphoryl)-L-alaninate], the IC50 was under 100 nM.

Consider `CCCOC(=O)CNP(=O)(Cc1ccc2sc(C(=O)N[C@H]3CCC[C@H]4CC[C@@H](C(=O)N5CC(c6cccnc6)C5)N4C3=O)cc2c1)Oc1ccccc1` (stereo partly drawn) [Compound 264, propyl (((2-(((3S,6S,9aS)-5-oxo-3-(3-(pyridin-3-yl)azetidine-1-carbonyl)octahydro-1H-pyrrolo[1,2-a]azepin-6-yl)carbamoyl)benzo [b]thiophen-5-yl)methyl)(phenoxy)phosphoryl)glycinate], for which the IC50 was in the range of 100 to 1000 nM.

Values taken from patent publication US20250215029A1 (Recludix Pharma, Inc., priority 2022, published 2025).
